Results: patent US12151991B2, “Use of a substituted thiazolidine compound as nitrification inhibitor” (BASF SE, priority 2018, dated 2024)

System: nitrification
Assay: Inhibition of nitrification in soil incubation test (ammonium and nitrate content after 14 days)
Conditions: 100 g soil, 10 mg ammonium sulfate-N, 20° C., 0 and 14 days; for NI* @ 1%: compound at 1% (of nitrogen N); for NI* @ 3%: compound at 3% (of nitrogen N); for NI* @ 0.3%: compound at 0.3% (of nitrogen N)
Protocol: The compounds of the invention have been tested as follows in terms of the inhibition of nitrification:
100 g soil is filled into 500 ml plastic bottles (e.g. soil sampled from the field) and is moistened to 50% water holding capacity. The soil is incubated at 20° C. for two weeks to activate the microbial biomass. 1 ml test solution, containing the compound in the appropriate concentration (usually 0.3 or 1% of nitrogen N), or DMSO and 10 mg nitrogen in the form of ammonium sulfate-N is added to the soil and everything mixed well. Bottles are capped but loosely to allow air exchange. The bottles are then incubated at 20° C. for 0 and 14 days.
For analysis, 300 ml of a 1% K2SO4-solution is added to the bottle containing the soil and shaken for 2 hours in a horizontal shaker at 150 rpm. Then the whole solution is filtered through a filter (Macherey-Nagel Filter MN 807%). Ammonium and nitrate content is then analyzed in the filtrate in an autoanalyzer at 550 nm (Merck, AA11).
The inhibition (NI @ a specified concentration) is calculated as follows: […]

Structure (SMILES)	NI* @ 1%	NI* @ 3%	NI* @ 0.3%
S=C1NCCS1 [Cmpd. 1, 1,3-Thiazolidine-2-thione]	47	83.5	–
O=C(c1ccc(Cl)cc1)N1CCSC1=S [Cmpd. 5, 3-(4-Chlorobenzoyl)-2-thiazolidinethione]	30.7	67	–
COc1ccc(C(=O)N2CCSC2=S)cc1OC [Cmpd. 8, 3-(3,4-Dimethoxybenzoyl)-2-thiazolidinethione]	–	55	–
CC(=O)N1CCSC1=S [Cmpd. 4, 3-Acetylthiazolidine-2-thione]	32.3	68.7	–
O=C(Cc1ccccc1)N1CCSC1=S [Cmpd. 3, 3-(Phenylacetyl)-2-thiazolidinethione]	55.3	71.1	26.6
Cc1c(C(=O)N2CCSC2=S)oc2ccccc12 [Cmpd. 12, 3-[(3-Methyl-2-benzofuranyl)carbonyl]-2-thiazolidinethione]	–	39	–
CC1(C)CSC(=S)N1 [Cmpd. 6, 4,4-Dimethyl-2-thiazolidinethione]	–	57.5	–
CN1CCSC1=S [Cmpd. 11, 3-Methyl-2-thiazolidinethione]	–	39.9	–
COc1cccc(C(=O)N2CCSC2=S)c1 [Cmpd. 2, 3-(3-Methoxybenzoyl)-2-thiazolidinethione]	73.1	67.9	34.8
O=C(c1ccccc1)N1CCSC1=S [Cmpd. 10, 3-Benzoyl-2-thiazolidinethione]	–	48.4	–
O=C(c1cccc(Br)c1)N1CCSC1=S [Cmpd. 9, 3-(3-Bromobenzoyl)-2-thiazolidinethione]	–	49	–
COc1ccc(C(=O)N2CCSC2=S)cc1 [Cmpd. 7, 3-(4-Methoxybenzoyl)-2-thiazolidinethione]	27.5	57.4	19.8
